Experimental data reported in publication PMC6068282, “In Silico Discovery of Plant-Origin Natural Product Inhibitors of Tumor Necrosis Factor (TNF) and Receptor Activator of NF-κB Ligand (RANKL)” (Frontiers in Pharmacology, 2018).

Molecular target: T1, TNF / human TNF (TNF/TNFR1 ELISA) (Homo sapiens, UniProt P01375)
T1 construct: recombinant human TNF (soluble; biologically active homotrimer); with Tumor necrosis factor receptor superfamily member 1A
Assay: ELISA, TNF binding to TNFR1

T1 sequence (P01375 77-233): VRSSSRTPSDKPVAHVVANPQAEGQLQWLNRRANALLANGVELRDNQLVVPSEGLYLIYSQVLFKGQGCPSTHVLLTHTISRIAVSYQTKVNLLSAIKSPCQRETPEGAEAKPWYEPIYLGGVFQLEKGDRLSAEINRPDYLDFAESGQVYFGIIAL

In the case of `Oc1ccc([C@@H]2c3c(O)cc4c(c3[C@H]3[C@H](c5ccc(O)cc5)c5c(O)cc6c(c5[C@@H]23)[C@@H](c2cc(O)cc(O)c2)[C@H](c2ccc(O)cc2)O6)[C@@H](c2cc(O)cc(O)c2)[C@H](c2ccc(O)cc2)O4)cc1` [A11, (1R,2R,6R,6aR,7R,8R,12R,12aR)-1,7-Bis(3,5-dihydroxyphenyl)-2,6,8,12-tetrakis(4-hydroxyphenyl)-1,2,6,6a,7,8,12,12a-octahydrofuro[2″,3″:6′,7′]indeno[1′,2′:2,3]indeno [5,4-b]furan-5,11-diol], the IC50 is reported as 3.3 ± 0.9 µM.
In the case of `C[C@@H]1O[C@@H](Oc2c(-c3ccc(O)cc3)oc3cc(O)cc(O)c3c2=O)[C@H](O[C@@H]2O[C@H](COC(=O)/C=C/c3ccc(O)cc3)[C@@H](O)[C@H](O)[C@H]2O)[C@H](O)[C@H]1O` [A25, [(2R,3S,4S,5R,6S)-6-[(2S,3R,4R,5R,6S)-2-[5,7-dihydroxy-2-(4-hydroxyphenyl)-4-oxochromen-3-yl]oxy-4,5-dihydroxy-6-methyloxan-3-yl]oxy-3,4,5-trihydroxyoxan-2-yl]methyl(E)-3-(4-hydroxyphenyl)prop-2-enoate], the IC50 is reported as 4.1 ± 1.7 µM.
